Assays:
LS174T [1] = assay: SCID mouse LS174T intraperitoneal xenograft model, surviving period; format: in vivo; settings: LS174T i.p., CPT-11 10 mg/kg; for surviving period median (median survival time: MST): N26 antibody 5 mg/kg, 5-FU 50 mg/kg, caudal vein once a week x4, adjuvant group 24 days; for prolongation of surviving period in comparison with the adjuvant alone group: log-rank test, N26 5 mg/kg, 5-FU 50 mg/kg once a week x4
Protocol: (1) SCID mouse and colorectal cancer cell line
SCID mice (C.B-17/Icr-scid, female, 6-weeks old) were purchased from CLEA Japan Inc. and reared in an SPF (specific pathogen free) equipment.
A colorectal cancer-derived cell line LS174T (purchased from ATCC) was used as the tumor cell and cultured using RPMI 1640 medium (manufactured by GIBCO, Invitrogen) containing 10% FBS (manufactured by HyClone) and 1% penicillin-streptomycin (manufactured by GIBCO, Invitrogen).
A xenograft model was prepared by intraperitoneally transplanting the cultured LS174T cell into the SCID mouse at a dose of 1×10^7 cells/200 μl/head.
An anti-A33 human antibody (KRN330) (hereinafter referred to as N26 antibody) comprising the heavy chain variable region represented by SEQ ID NO:23 and the light chain variable region represented by SEQ ID NO:25 was used as an anti-A33 human antibody.
5-FU (5FU Injection 250 Kyowa) was obtained from Kyowa Hakko Kirin Co., Ltd. and CPT-11 (Campto (registered trademark) Injection or Irinotecan Hydrochloride Injection) was obtained from YAKULT HONSHA CO., LTD. In the control group, a dilution medium of the anti-A33 human antibody (10 mM of sodium L-glutamate, 262 mM of D-sorbitol and 0.05 mg/ml of polysorbate 80, pH 5.5) was used.
Administration schedules of agents are shown in FIG. (A)(a) and FIG. 1(B)(a), respectively. After transplanting the cultured LS174 cell into the abdominal cavity of SCID mice on day 0, their body weights were measured on the next day of the transplantation (on day 1) to divide them into six groups in such a manner that the average body weight of each group became equal (A, B, E and F groups=seven animals per group, C and D groups=six animals per group).
The grouping day was regarded as the initial administration day, and thereafter, 5 mg/kg of an anti-A33 human antibody, 10 mg/kg of CPT-11 (irinotecan) or 50 mg/kg of 5-FU was administered into the mouse caudal vein at a dose of 10 ml/kg, four times (on day 1, day 8, day 15 and day 22) at a frequency of once a week, and the surviving period was monitored. On the same day of the drug administration, an adjuvant was intravenously administered to the control group.
Survival curve of each administration group was plotted by the Kaplan-Meier method and the survival curves of each group were compared using log-rank test, with the results shown in FIG. 1(A)(b) and FIG. 1(A)(c) and FIG. 1(B)(b) and FIG. 1(B)(c). In this connection, though the results of FIG. 1(A)(b) and FIG. 1(A)(c) and FIG. 1(B)(b), and FIG. 1(B)(c) are separately shown, these were carried out in the same test, and results of the control group and the N26 antibody (5 mg/kg) group in FIG. 1(A)(b) and FIG. 1(A)(c) are identical to those in FIG. 1(B)(b) and FIG. 1(B)(c).

LS174T [2] = assay: Nude rat LS174T subcutaneous xenograft model, tumor volume
Protocol: Nude rat (F344/NJcl-rnu/rnu, female, 8 weeks old) was purchased from CLEA Japan Inc. and reared in an SPF equipment.
Oxaliplatin (ELPLAT (registered trademark) For Injection or Oxaliplatin For Injection) was obtained from YAKULT HONSHA CO., LTD., and Avastin (registered trademark) (bevacizumab) was obtained from Genentech Inc.
Administration schedule of each agent was carried out in the following manner. When the size of tumor became from 30 m^3 to 50 m^3 after subcutaneously grafting with LS174T cell to the nude rat, grouping was carried out so as to be five animals per group in such a manner that the tumor volume of each group became uniform (on day 0).
The adjuvant was intravenously administered to the control group in the same manner. The tumor volume of each individual was measured at a frequency of once or twice a week.

| Compound | surviving period median (median survival time: MST) (LS174T [1]) [days] | prolongation of surviving period in comparison with the adjuvant alone group (LS174T [1]) | antitumor effect (tumor volume), FIG. 2(a) (LS174T [2]; nude rat LS174T s.c., N26 5 mg/kg, 5-FU 100 mg/kg, i.v. day 0, 7, 14, 21) | antitumor effect (tumor volume), FIG. 2(b) (LS174T [2]; nude rat LS174T s.c., N26 5 mg/kg, oxaliplatin 15 mg/kg, i.v. day 0, 7, 14, 21) | body weight loss (LS174T [2]; nude rat, oxaliplatin 15 mg/kg administration group) |
| --- | --- | --- | --- | --- | --- |
| O=c1[nH]cc(F)c(=O)[nH]1 [5-FU, 5-fluorouracil] | 24 | prolongation of surviving period was not found | significant antitumor effect | – | – |
| CCc1c2c(nc3ccc(OC(=O)N4CCC(N5CCCCC5)CC4)cc13)-c1cc3c(c(=O)n1C2)COC(=O)[C@]3(O)CC [CPT-11, irinotecan] | 41 | significant prolongation of surviving period | – | – | – |
| O=C1[O][Pt]2([NH][C@@H]3CCCC[C@H]3[NH]2)[O]C1=O [oxaliplatin] | – | – | – | slight antitumor effect | significant body weight loss |

From patent US20120020989A1, “METHODS OF TREATING COLORECTAL CANCER” (KYOWA HAKKO KIRIN CO., LTD., priority 2010, published 2012)
